Results reported in patent publication US5981521A, “Tetrahydroisoquinoline derivatives as LHRH antagonists” (Abbott Laboratories, priority 1998, dated 1999).
Counter-ions that a name gives are not always drawn.

The molecules below were run against T1, LHRH rat pituitary receptor (Rattus norvegicus, UniProt P30969) (assay: LHRH rat pituitary receptor binding). Conditions: Table 1: compounds of formula (V), by n and R1.
T1 construct: from tissue; host or cells: rat pituitary
T1 sequence (P30969 1-327): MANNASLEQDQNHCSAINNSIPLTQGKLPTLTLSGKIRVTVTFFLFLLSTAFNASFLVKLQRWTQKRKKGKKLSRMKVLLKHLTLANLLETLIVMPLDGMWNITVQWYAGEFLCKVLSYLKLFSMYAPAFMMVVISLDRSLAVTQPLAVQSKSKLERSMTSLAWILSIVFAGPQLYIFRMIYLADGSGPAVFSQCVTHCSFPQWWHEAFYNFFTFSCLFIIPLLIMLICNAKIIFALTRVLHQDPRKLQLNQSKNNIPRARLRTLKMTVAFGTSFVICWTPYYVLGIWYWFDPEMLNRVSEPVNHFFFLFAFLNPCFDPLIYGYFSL
Description: Representative compounds of the present invention were evaluated in vitro for potency against for LHRH rat pituitary receptor binding [pK, ]. Methods for the assay procedures are 10 described in […] al. J Med. Chem., 32: 2340-2344 (1989). Values of pK, are the negative logarithms of the equilibrium dissociation constant of the particular antagonist test compound for the receptor binding. […] Leuprolide LHRH agonist, disclosed and claimed in U.S. Pat. No. 4,005, 063, has the structure 5-oxo-[…].

SMILES | pKI | Ki [nM]
COc1cc2c(cc1OC)C(C)N(CCCC(CCCNC(=O)CCc1ccc(F)cc1)(c1ccccc1)c1ccccc1)CC2 (racemic) [Example 1, (R,S) 7-[N-3-(4-Fluorophenyl)propionyl]amino-1-[N-(1,2,3,4-tetrahydro-1-methyl-6,7-dimethoxyisoquinolinyl]1-4,4-diphenylheptane hydrochloride] | 8.80 | –
COc1cc2c(cc1OC)C(Cc1ccccc1)N(CCCC(CCCNC(=O)CCc1ccc(F)cc1)(c1ccccc1)c1ccccc1)CC2 (centres unmarked) [Example 17, 7-[N-3-(4-Fluorophenyl)propionyl]amino-1-[N-(1,2,3,4-tetrahydro-1-benzyl-6,7-dimethoxyisoguinolinyl)1-4.4-diphenylheptane hydrochloride] | 8.56 | –
COc1cc2c(cc1OC)C(c1ccc(NC(C)C)cc1)N(CCCC(CCCNC(=O)CCc1ccc(F)cc1)(c1ccccc1)c1ccccc1)CC2 (centres unmarked) [Example 16, 7-[N-3-(4-Fluorophenyl)propionyl]amino-1-[N-(1,2,3,4-tetrahydro-1-r4-(N-isonropylamino)-phenol-6,7-dimethoxyisoguinolinyl)1-4.4-diphenylheptanedihydrochloride] | – | 2.95
COc1cc2c(cc1OC)C(C1CCC1)N(CCCC(CCCNC(=O)CCc1ccc(F)cc1)(c1ccccc1)c1ccccc1)CC2 (centres unmarked) [Example 9, 7-[N-3-(4-Fluorophenyl)propionyl]amino-1-[N-(1,2,3,4-tetrahydro-1-cyclobutyl-6,7-dimethoxnisoguinolinyl)]1-4,4-diphenalhentane hydrochloride] | 10.07 | –
COCC1c2cc(OC)c(OC)cc2CCN1CCCC(CCCNC(=O)CCc1ccc(F)cc1)(c1ccccc1)c1ccccc1 (centres unmarked) [Example 12, 7-[N-3-(4-Fluorophenyl)propionyl]amino-1-[N-(1,2,3,4-tetrahydro-1-methoxymethyl-6,7-dimethoxyisoguinolinyl)]-4,4-diphenylhelptane hydrochloride] | – | 8.32
COc1cc2c(cc1OC)C(CN)N(CCCC(CCCNC(=O)CCc1ccc(F)cc1)(c1ccccc1)c1ccccc1)CC2 (centres unmarked) [Example 22, 7-[N-3-(4-Fluorophenyl)propionyl]amino-1-[N-(1,2.3,4-tetrahydro-1-aininomethyl-6,7-dimethoxyisoguinolinyl)1-4.4-diphenylheptanedihydrochloride] | 9.24 | –
COc1cc2c(cc1OC)C(C(C)C)N(CCCC(CCCNC(=O)CCc1ccc(F)cc1)(c1ccccc1)c1ccccc1)CC2 (centres unmarked) [Example 6, 7-[N-3-(4-Fluorophenylpropionyl]amino-1-[N-(1,2,3,4-tetrahydro-1-isopropyl-6.7-dimethoxyisoquinolinyl)]1-4.4-diphenylheptane hydrochloride] | – | 1.58
COc1cc2c(cc1OC)C(COCc1ccccc1)N(CCCC(CCCNC(=O)CCc1ccc(F)cc1)(c1ccccc1)c1ccccc1)CC2 (centres unmarked) [Example 13, 7-[N-3-(4-Fluorophenyl)propionyl]amino-1-[N-(1,2,3,4-tetrahydro-1-benzyloxymethyl-6,7-dimethoxyisoguinolinyl)1-4.4-diphenylhelptane hydrochloride] | – | 3.47
COc1cc2c(cc1OC)C(CCCCN1C(=O)c3ccccc3C1=O)N(CCCC(CCCNC(=O)CCc1ccc(F)cc1)(c1ccccc1)c1ccccc1)CC2 (centres unmarked) [Example 24, 7-[N-3-(4-Fluorophenyl)propionyl]amino-1-[N-F 1,2,3,4-tetrahydro-1-(4-N-phthalimidobutyl)-6,7-dimethoxyisoquinolinyl)]-4,4-diphenylheptane hydrochloride] | – | 0.407
COc1cc2c(cc1OC)C(CCCCNCC1CC1)N(CCCC(CCCNC(=O)CCc1ccc(F)cc1)(c1ccccc1)c1ccccc1)CC2 (centres unmarked) [Example 27] | 10.0 | –
COc1cc2c(cc1OC)C(CCCCNC1CCC1)N(CCCC(CCCNC(=O)CCc1ccc(F)cc1)(c1ccccc1)c1ccccc1)CC2 (centres unmarked) [Example 28, 7-[N-3-(4-Fluorophenyl)propionyl]-1-[N-(1,2,3,4-tetrahydro-1-(4-N-(cyclobutylamino)butyl)-6,7-dimethoxyisoquinolinyl)1-4.4-diphenylheptanedihydrochloride] | 9.60 | –

Other lines, results leading:

pKI | Ki [nM] | SMILES
– | 35.5 | COc1cc2c(cc1OC)C(C)N(CCCCC(CCCNC(=O)CCc1ccc(F)cc1)(c1ccccc1)c1ccccc1)CC2 (centres unmarked) [Example 45]
– | 2.88 | COc1cc2c(cc1OC)C(C1CCCCC1)N(CCCC(CCCNC(=O)CCc1ccc(F)cc1)(c1ccccc1)c1ccccc1)CC2 (centres unmarked) [Example 10, 7-[N-3-(4-Fluorophenyl)propionyl]amino-1-[N-(1,2,3,4-tetrahydro-1-cyclohexyl-6,7-dimethoxyisoguinolinyl)1-4.4-diphenylheptane hydrochloride]
8.00 | – | COc1cc2c(cc1OC)C(CCCCNCCC(C)C)N(CCCC(CCCNC(=O)CCc1ccc(F)cc1)(c1ccccc1)c1ccccc1)CC2 (centres unmarked) [Example 30, 7-[N-3-(4-Fluorophenyl)propionyl]amino-1-[N-(1,2,3,4-tetrahydro-1-(4-N-isopentylamino)butyll-6,7-dimethoxyisoquinolinyl)1-4.4-diphenylheptanedihydrochloride]
8.71 | – | COc1cc2c(cc1OC)C(CC#N)N(CCCC(CCCNC(=O)CCc1ccc(F)cc1)(c1ccccc1)c1ccccc1)CC2 (centres unmarked) [Example 11, 7-[N-3-(4-Fluorophenyl)propionyl]amino-1-[N-(1,2,3,4-tetrahydro-1-cyanomethyl-6,7-dimethoxyisoguinolinyl)1-4.4-diphenylheptane hydrochloride]
– | 2.34 | COc1cc2c(cc1OC)C(CCCCNC(C)=O)N(CCCC(CCCNC(=O)CCc1ccc(F)cc1)(c1ccccc1)c1ccccc1)CC2 (centres unmarked) [Example 34, 7-[N-3-(4-FluoroTphenyl)propionyll-1-[N-(1,2,3,4-tetrahydro-1-(4-N-acetylamino)butyl)-6,7-dimethoxyisoguinolinyl)1-4,4-diphenylheptane hydrochloride]
– | 38.9 | COc1cc2c(cc1OC)C(Cc1ccc(Cl)cc1)N(CCCC(CCCNC(=O)CCc1ccc(F)cc1)(c1ccccc1)c1ccccc1)CC2 (centres unmarked) [Example 18, 7-[N-3-(4-Fluorophenyl)propionyl]amino-1-[N-(1,2,3,4-tetrahydro-1-(4-chlorobenzyl)-6,7-dimethoxyisoguinolinyl)1-4.4-diphenylheptane hydrochloride]
– | 2.95 | COc1cc2c(cc1OC)C(c1ccc(N)cc1)N(CCCC(CCCNC(=O)CCc1ccc(F)cc1)(c1ccccc1)c1ccccc1)CC2 (centres unmarked) [Example 15, 7-[N-3-(4-Fluorophenyl)propionyl]amino-1-[N-(1.2.3 .4-tetrahydro-1-(4-aminophenyl)-6,7-dimethoxyisoguinolinyl)1-4.4-diphenylheptanedihydrochloride]

Same assay, conditions: Table 2: compounds of formula (VI), by isoquinolinyl moiety R

SMILES | Ki [nM]
CC1c2cc([N+](=O)[O-])ccc2CCN1CCCC(CCCNC(=O)CCc1ccc(F)cc1)(c1ccccc1)c1ccccc1 (stereo not drawn) [Example 54, 7-[N-3-(4-Fluorophenyl)Propionyl]-1-[N-(1,2,3,4-tetrahydro-1-methyl-7-nitro-isoquinolinyl)l-4,4-diphenylheiptane hydrochloride] | 4.37
COc1cc2c(cc1OC)C(C)N(CCCC(CCCNC(=O)CCc1ccc(F)cc1)(c1ccccc1)c1ccccc1)CCC2 (centres unmarked) [Example 69, 7-[N-3-(4-Fluorophenyl)propionyl]-1-[N-(2,3,4,5-tetrahydro-1-methyl-7.8-dimethoxy-I H-2-benzazepinyl)1-4.4-diphenylheptane hydrochloride] | 12.6
COc1cc2c(cc1F)CCN(CCCC(CCCNC(=O)CCc1ccc(F)cc1)(c1ccccc1)c1ccccc1)C2C (centres unmarked) [Example 60, 7-[N-3-(4-Fluorophenyl)propionyl]-1-[N-(1,2,3,4-tetrahydro-1-methyl-6-fluoro-7-methoxyisoguinofinyl)1-4.4-diphenylheptane hydrochloride] | 1.7
COC(=O)c1cc2c(cc1OC)C(C)N(CCCC(CCCNC(=O)CCc1ccc(F)cc1)(c1ccccc1)c1ccccc1)CC2 (centres unmarked) [Example 63, 7-[N-3-(4-Fluorophenyl)propionyl]-1-[N-(1,2,3,4-tetrahydro-1-methyl-6-carbomethoxy-7-methoxyisoguinolinyl)1-4.4-diphenylhentane hydrochloride] | 6.76
COc1ccc2c(c1)CCN(CCCC(CCCNC(=O)CCc1ccc(F)cc1)(c1ccccc1)c1ccccc1)C2C (stereo not drawn) [Example 50, 7-[N-3-(4-Fluorophenyl)propionyl]amino-1-[-1-(1,2,3,4-tetrahydro-1-methv,l-6-methoxyisoquinolinyl)1-4.4-diphenylheptane hydrochloride] | 2.51

Other lines, results leading:

Ki [nM] | SMILES
3.72 | CC1c2cc(Cl)c(Cl)cc2CCN1CCCC(CCCNC(=O)CCc1ccc(F)cc1)(c1ccccc1)c1ccccc1 (centres unmarked) [Example 56, 7-[N-3-(4-Fluorophenyl)propionyl]-1-[N-(1,2,3,4-tetrahydro-1-methyl-6,7-dichloro-isoquinolinyl)1-4.4-diphenylheptane hydrochloride]
6.03 | COc1cc2c(cc1Br)CCN(CCCC(CCCNC(=O)CCc1ccc(F)cc1)(c1ccccc1)c1ccccc1)C2C1CCC1 (stereo not drawn) [Example 64, 7-[N-3-(4-Fluorophenyl)propionyl]amino-1-[N-(1,2,3,4-tetrahydro-1-cyclobutyl-6-bromo-7-methoxyisoquinolinyl)l-4,4-diiphenylheptane hydrochloride]

Same assay, conditions: Table 3: compounds of formula (VII), by substituent R'

Ki [nM] | SMILES
2.19 | COc1cc2c(cc1OC)C(C)N(CCCC(CCCNC(=O)CCc1ccc(Cl)c(Cl)c1)(c1ccccc1)c1ccccc1)CC2 (centres unmarked) [Example 73]
